These results are taken from ChEMBL document CHEMBL2331129, “Development and characterization of monomeric N-end rule inhibitors through in vitro model substrates” (J Med Chem, 2013).

Active and inactive are the calls of the source. The calls are words filed in the database; no cut-off is given here.

For experiment [1], the species on record is Oryctolagus cuniculus. Briefly: Inhibition of UBR protein in rabbit reticulocyte lysates assessed as inhibition of RGS4 substrate degradation at 2 mM after 30 to 60 mins in presence of bestatin.
The species entered for experiment [2] is Oryctolagus cuniculus. Briefly: Inhibition of UBR protein in rabbit reticulocyte lysates assessed as inhibition of Arg-nsP4 substrate degradation at 6 mM by SDS-PAGE in presence of bestatin.
Experiment [3] is filed under the species Oryctolagus cuniculus. The note with it: at 2 mM.
Description: Inhibition of UBR protein in rabbit reticulocyte lysates assessed as inhibition of Tyr-nsP4 substrate degradation at 2 mM
The species entered for experiment [4] is Oryctolagus cuniculus. To be noted: at 2 mM. The source holds these as a separate data set.
Description: Inhibition of UBR protein in rabbit reticulocyte lysates assessed as inhibition of Tyr-nsP4 substrate degradation at 2 mM by immunoblotting analysis in presence of bestatin
The species entered for experiment [5] is Oryctolagus cuniculus. The experiment in a line: Inhibition of UBR protein in rabbit reticulocyte lysates assessed as inhibition of Arg-nsP4 substrate degradation at 2 mM after 30 mins by Western blot analysis. For orientation: In western blotting, separated proteins are transferred to a membrane and probed.
For experiment [6], the species on record is Oryctolagus cuniculus. The experiment in a line: Inhibition of UBR protein in rabbit reticulocyte lysates assessed as inhibition of Arg-nsP4 substrate degradation at 2 mM by SDS-PAGE in presence of bestatin.
Experiment [7] is described as follows: Inhibition of UBR protein in rabbit reticulocyte lysates assessed as inhibition of Arg-nsP4 substrate degradation by in vitro synthesis/degradation assay. Details: species or system Oryctolagus cuniculus.
The species named for experiment [8] is Oryctolagus cuniculus. The experiment in a line: Inhibition of UBR protein in rabbit reticulocyte lysates assessed as inhibition of Arg-nsP4 substrate degradation at 1 mM after 30 mins by Western blot analysis.
A short description of experiment [9]: Inhibition of UBR protein in rabbit reticulocyte lysates assessed as inhibition of Tyr-nsP4 substrate degradation by in vitro synthesis/degradation assay. Set-up: species or system Oryctolagus cuniculus.
Experiment [10] is filed under the species Oryctolagus cuniculus.
Description: Inhibition of UBR protein in rabbit reticulocyte lysates assessed as inhibition of Tyr-nsP4 substrate degradation measuring substrate half life at 2 mM

Regarding `C[C@H](NC(=O)[C@H](N)CCCNC(=N)N)C(=O)O`, the inhibition entry in experiment [1] and in [2] was “inactive” throughout.
As for `NC(=O)[C@@H](N)Cc1ccccc1`, the inhibition entry in [3] was “Active”. In addition, in experiment [4], the inhibition entry is “inactive”.
Take `N[C@@H](Cc1ccccc1)C(=O)NCCCCC(=O)O`: the inhibition result in experiment [3] and in experiment [4] was “Active” each time.
In the case of `NC(N)=NCCC[C@H](N)C(=O)N[C@@H](Cc1ccccc1)C(=O)O`, the inhibition entry in experiment [1] is “Active”.
By IC50 is commonly meant the concentration that inhibits the measured activity by half. Consider `C[C@H](NC(=O)[C@@H](N)CCCN=C(N)N)C(=O)O`, for which the inhibition result in [5], in [1] and in experiment [6] was “Active” throughout. Moreover, the IC50 in experiment [7] is 1.2 mM.
For the compound `C[C@H](NC[C@@H](N)Cc1ccccc1)C(=O)O`, the inhibition result in experiment [4] was “inactive”.
With `CCCCCNC(=O)[C@@H](N)Cc1ccccc1`, the inhibition result in [3] and in experiment [4] was “Active” in each case.
With `CC(N)Cc1ccc(Cl)cc1` (configuration not stated), the inhibition entry in experiment [8] and in [4] was “Active” throughout. In addition, the results for the IC50 in experiment [9] and in experiment [7] were 1.17 mM and 0.935 mM, respectively. This compound showed a T1/2 in [10] of 1.05 h.
In the case of `N=C(N)NCCC[C@@H](N)C(=O)N[C@@H](Cc1ccccc1)C(=O)O`, in experiment [1], the inhibition result was “inactive”.
Take `CC(=O)N[C@@H](Cc1ccccc1)C(=O)N[C@@H](C)C(=O)O`: the inhibition entry in experiment [4] is “inactive”.
With `N[C@@H](Cc1ccccc1)C(=O)NCCCP(=O)(O)O`, the inhibition entry in experiment [3] and in experiment [4] was “Active” each time.
Regarding `CC(=O)N[C@@H](Cc1ccccc1)C(N)=O`, the inhibition result in experiment [3] and in experiment [4] was “inactive” in each case.
Turning to `COC(=O)CCCCNC(=O)[C@@H](N)Cc1ccccc1`, the inhibition entry in experiment [3] and in [4] was “Active” throughout.
With `CC(N)Cc1ccccc1` (configuration not stated), in experiment [4], the inhibition result is “Active”.
For `CC(=O)N[C@@H](Cc1ccccc1)C(=O)O`, the inhibition result in experiment [3] and in experiment [4] was “inactive” in each case.
`N[C@@H](Cc1ccccc1)C(=O)NCCC(=O)O`: the inhibition result in experiment [3] and in experiment [4] was “Active” each time.
